Experiments:
[1] = Thermogravimetric (TG) analysis of thermal stability; assay type: physicochemical; conditions: for TG To (Tonset of thermal degradation): nitrogen, 50 to 350 °C; for TG decomposition or desolvation processes in the temperature range studied: range 100–135 °C for VA4J, 94–108 °C for VA6E
Experimental: The thermogravimetric (TG) studies were carried out with a Perkin–Elmer TGA-7 (Perkin Elmer, Inc. Watham, MA, USA) which was calibrated with alumel and nickel at 10 °C·min^−1. The calibration of the oven temperatures was carried out automatically and mass calibrated with a certified sample of 10 mg (ASTM E617, provided by Perkin Elmer, Inc. Watham, MA, USA). TG analyses were performed under a nitrogen atmosphere with a gas flow of 40 mL·min^−1, from 50 to 350 °C, at a heating rate of 10 °C·min^−1, using a sample of approximately 3 mg, in order to obtain the values of the Tonset and Tmax of the degradation process as well as any associated mass loss.

[2] = DSC successive melting-recrystallization cycles, polymorphic behaviour; assay type: physicochemical; design: key: I: Compounds that show a polymorphic phase transition into an amorphous or mainly amorphous solid form after a first melting–cooling scan; II: Compounds that change into a new polymorphic form with a different Tonset of fusion than the one observed at the first melting–recrystallization scan after cooling; III: These compounds show a fusion process without modifications in the thermal behaviour after an initial fusion–recrystallization cycle; IV: Compounds that show recrystallization or other types of phase transition of the original form into another crystalline one in the first heat scan; V: Compounds without fusion processes at the range of temperatures studied; *: fusion with decomposition; conditions: 10 °C/min
Experimental: To establish general polymorphic behaviours, samples of all the compounds synthetized (Figure 1) were exposed to successive cycles of melting–recrystallization using DSC. Calorimetric analyses were performed before the beginning of the degradation process (Table 6). […] This behaviour was shown by several compounds: VA1C, VA2E, VA8E, series H, VA6I, VA8J, VA6M and VA8M. DSC and PXRD results of compound VA7H are shown as supplementary material (Figures S1 and S2 and Table S1). • Behaviour II—Compounds that change into a new polymorphic form with a different Tonset of fusion than the one observed at the first melting–recrystallization scan after cooling. These compounds are VA7E and VA8O. DSC and PXRD results of compound VA7E are shown as supplementary material (Figures S3 and S4, Table S2). • Behaviour III—These compounds show a fusion process without modifications in the thermal behaviour after an initial fusion–recrystallization cycle. Consequently, there is no evidence of polymorphic behaviour. The compounds VA2C, VA2M, VA4J and VA5O belong to this group. DSC and PXRD results of compound VA2M are shown as supplementary material (Figures S5 and S6, Table S3). • Behaviour IV—Compounds that show recrystallization or other types of phase transition of the original form into another crystalline one in the first heat scan. In the successive cycles of melting–recrystallization, the new form may not alter its crystalline form or transit to another polymorphic form. Compounds VA6E, VA7J and VA7M show this behaviour. • Behaviour V—Compounds without fusion processes at the range of temperatures studied.
For calorimetric studies a Perkin–Elmer DSC diamond calibrated with indium and zinc (provided by Perkin–Elmer (Perkin Elmer, Inc. Watham, MA, USA) and fabricated according to guideline ISO35) at 10 °C·min^−1 and nitrogen flow of 20 mL·min^−1 was employed. The gas connected to the equipment was nitrogen with a purity of 99.999%. Calorimetric analyses were carried out in aluminium capsules for volatilities of 10 μL, at a heating rate of 10 °C·min^−1, using a sample of approximately 3 mg, in order to establish the Tonset, Tmax and the enthalpy of fusion ∆Hf.
The calorimetric analyses started with the study of the thermal behaviour of the compounds before the process of degradation in order to evidence the possible existence of polymorphism. For this preliminary study, samples of all the compounds were exposed to successive cycles of heating–cooling. All samples were heated from 50 °C to temperatures 15–20 °C below Tonset of the degradation process, in order to ensure that compounds were not degraded (Table 6). After melting the samples, they were left at room temperature for enough time to allow the compounds to recrystallize before the successive thermal process. Additional cycles of heating–cooling were performed if polymorphism was detected.

[3] = Stability after stress conditions by HPLC/UV-DAD; assay type: physicochemical; conditions: 0, 4 and 24 h; for Stability to oxidation: H2O2 3%; for Stability to acid hydrolysis: HCl 1 M; for Stability to basic (alkaline) hydrolysis: NaOH 0.1 M
Experimental: The stability of compounds VA4J (without polymorphic behaviour) and VA6E and VA7J (with polymorphic behaviour) was investigated after the application of diverse stress conditions: acid hydrolysis (HCl 1 M), basic hydrolysis (NaOH 0.1 M) and oxidation (H2O2 3%). Chromatographic studies using HPLC/UV-DAD were performed with this purpose.
Chromatographic studies were performed using an HPLC/UV-DAD (HP 1200, Agilent Technologies. Santa Clara, CA, USA) with a C18 column (Gemini-NX 150 × 4.6 mm, 5 µm) from Phenomenex (Phenomenex. Torrance, CA, USA). The mobile phase was a mixture of acetonitrile/water (80:20; v/v) for compound VA4J, (50:50; v/v) for VA6E and (80:20, 0.1% formic acid; v/v) for compound VA7J. The injection volume was 50 µL and the flow rate was 1 mL/min. Chromatography was performed at 35 °C. UV-DAD detection was established at λ = 254 nm.
For stability evaluation in stress conditions, working solutions of 47.6 µg/mL were prepared by diluting 20 µL of each standard solution in 200 µL of acetonitrile and 200 µL of (a) 1 M HCl, (b) 0.1 M NaOH and (c) 3% H2O2. Data were recorded at zero time and after 4 and 24 h of exposure.

[4] = tested on: 1205Lu (melanoma), A549 (lung), DU145 (prostate), HCT116 (colon), PANC-1 (pancreas) and BxPC3 (pancreas); design: method as in PMID 26922233; conditions: all six cell lines, even at short time points; MTT conditions slightly different; cited from earlier work
[5] = tested on: breast adenocarcinoma (MCF-7) cell line; experiment: MTT cell viability assay, 72 h, MCF-7; assay type: cell-based, human; conditions: for SI (selectivity index): GI50(184B5)/GI50(MCF-7); for TGI: concentration that completely inhibits cell growth; for LD50: concentration that kills 50% of cells
Experimental: (§1) The novel synthetic compounds VA2J, VA4J, VA6G, VA6H, VA6I and VA6J were tested in breast adenocarcinoma (MCF-7) and non-malignant mammary-gland-derived (184B5) cell lines to be able to establish their potency and selectivity. The reference drug used was methylseleninic acid (MSA) as a Se-containing structure with promising in vitro and in vivo results against different tumour types. Results are expressed as the concentration that inhibits 50% cell growth (GI50), the concentration that inhibits completely cell growth (TGI) and the concentration that kills 50% of cells (LD50). The selectivity index (SI) is calculated as GI50(184B5)/GI50(MCF-7).
(§2) Cell lines were purchased from the American Type Culture Collection (ATCC, Barcelona, Spain). MCF7 cell lines were grown in Roswell Park Memorial Institute (RPMI) medium (Gibco, Madrid, Spain) supplemented with 10% fetal bovine serum (FBS; Gibco), 100 units/mL penicillin and […] (Gibco, Madrid, Spain). 184B5 cells were grown in DMEM/F12 medium supplemented with 5% FBS, 1x ITS (Lonza, Barcelona, Spain), 100 nM hydrocortisone (Sigma Aldrich, Madrid, Spain), 2 mM sodium pyruvate (Lonza), 20 ng/mL EGF (Sigma Aldrich, Madrid, Spain), 0.3 nM trans-retinoic acid (Sigma-Aldrich) 100 units/mL penicillin and […]. Cells were maintained at 37 °C and 5% CO2.
(§3) Compounds were dissolved in DMSO at a concentration of 0.01 M. Serial dilutions were prepared with non-supplemented medium. The cytotoxic effect of each compound was tested at eight different concentrations ranging between 0.01 and 100 µM.
(§4) A total of 10^4 cells/well in 96 well-plates were treated with either DMSO or increasing concentrations of the corresponding compound for 72 h and cell viability was determined using the MTT (3-(4,5-dimethylthiazol-2-yl)-2,5-diphenyltetrazolium bromide) (Sigma Aldrich, Madrid, Spain) assay. Briefly, cells were incubated with 50 µL of MTT (2 mg/mL stock) for 4 h. The medium was then removed by aspiration and the formazan crystals were dissolved in 150 µL of DMSO. The absorbance was measured at 550 nm in a microplate reader (Sunrise, Tecan, Männedorf, Switzerland). […] Data were obtained from at least three independent experiments performed in quadruplicate.

[6] = tested on: non-malignant mammary-gland-derived (184B5) cell line; experiment: MTT cell viability assay, 72 h, 184B5; assay type: cell-based; conditions: 184B5, 72 h; for GI50: Homo sapiens
Experimental: as §1, §2, §3, §4

[7] = tested on: breast adenocarcinoma (MCF-7) cell line; design: method as in PMID 27487570; conditions: same methodology; cited from earlier work

SMILES | TG debromhidration process temperature ([1]; 10 °C/min) [°C] | DSC Behaviour (polymorphic/calorimetric behaviour) [2] | Stability to oxidation [3] | Stability to acid hydrolysis [3] | Stability to basic (alkaline) hydrolysis [3] | IC50 [4] [µM] | SI (selectivity index) [5] | TGI ([5]; MCF-7, 72 h, MTT) [µM] | LD50 ([5]; MCF-7, 72 h, MTT) [µM] | LD50 [6] [µM] | TGI [6] [µM] | GI50 [6] [µM] | TG To (Tonset of thermal degradation) ([1]; 10 °C/min) [°C] | TG decomposition or desolvation processes in the temperature range studied [1] | Selectivity relative to MSA [7] | SI relative to MSA ([5]; SI of compound compared with SI of MSA) | GI50 ([5]; Homo sapiens, MCF7, 72 h, MCF-7, 72 h, MTT, concentration that inhibits 50% cell growth) [µM]
N=C(N)[Se]Cc1nc2ccccc2nc1C[Se]C(=N)N [VA7J] | 173 | IV | totally degraded | stable | only a minor degradation | < 10 |  |  |  |  |  |  |  |  |  |  | 
Cl.N=C(N)Sc1nc2ccccc2nc1S [VA2J, 3-Mercaptoquinoxalin-2-yl Carbamimidothioate Hydrochloride] |  | * |  |  |  |  | 5.66 | 13.90 | 44.02 | 20.48 | 15.97 | 12.5 | 199.2 |  |  |  | 
N#CSCc1cc2c(cc1Br)OCO2 [VA6E] |  | IV | degradation product peaks were also detected | degradation product peaks were also detected | degraded almost completely |  |  |  |  |  |  |  | 184.1 | can be excluded | fourteen times more selective than MSA |  | 
N#CSCc1ccc2c(c1)C(=O)c1ccccc1C2=O [VA6G, (9,10-Dioxo-9,10-dihydroanthracen-2-yl)methyl Thiocyanate] |  | V |  |  |  |  | 3.99 | 23.95 | 67.27 | 64.84 | 34.32 | 14.3 | 238.3 |  |  |  | 
CSc1nc2ccccc2nc1SC [VA4J, 2,3-Bis(methylsulfanyl)quinoxaline] |  | III | stable | stable | stable |  | 51.25 | >100 | >100 | >100 | >100 | 52.5 | 197.42 | can be excluded |  | over 50 times | 
N#CSCc1nc2ccccc2nc1CSC#N [VA6J, Quinoxalin-2,3-diyldimethanediyl Bisthiocyanate] |  | * |  |  |  |  | 2.15 | 50.55 | 83.93 | 94.62 | 69.80 | 39.8 | 165.0 |  |  |  | 18.5

From article PMC6152329, “Antitumoural Sulphur and Selenium Heteroaryl Compounds: Thermal Characterization and Stability Evaluation” (Molecules : A Journal of Synthetic Chemistry and Natural …, 2017)
